Source: PubChem BioAssay AID248 (DTP/NCI, 2004)
Toxic doses and inconclusive results are not listed. No stated cut-off is given here; in the data, active means T/C of 150% or more; inactive means T/C below 125%.

Test system: L1210 leukemia ip in BDF1 mice, survival T/C
Experiment: NCI In Vivo Anticancer Drug Screen. Data for tumor model L1210 Leukemia (intraperitoneal) in B6D2F1 (BDF1) mice
Details: endpoint: mean survival time, higher = longer survival
Summary of the method: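 Read-out is survival time, reported as the treated-group measurement over the vehicle-control measurement.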

[1] = dose: 100.0 mg/kg/injection, schedule: Q01DX009 (ip), vehicle: saline with Tween-80
[2] = dose: 200.0 mg/kg/injection, schedule: Q01DX009 (ip), vehicle: saline with Tween-80
[3] = dose: 50.0 mg/kg/injection, schedule: Q01DX009 (ip), vehicle: saline with Tween-80
[4] = dose: 100.0 mg/kg/injection, schedule: Q04DX003 (ip), vehicle: saline with Tween-80
[5] = dose: 200.0 mg/kg/injection, schedule: Q04DX003 (ip), vehicle: saline with Tween-80
[6] = dose: 400.0 mg/kg/injection, schedule: Q04DX003 (ip), vehicle: saline with Tween-80
[7] = dose: 100.0 mg/kg/injection, schedule: Q04DX003 (ip), vehicle: Klucel (hydroxypropylcellulose) (HPC)
[8] = dose: 200.0 mg/kg/injection, schedule: Q04DX003 (ip), vehicle: Klucel (hydroxypropylcellulose) (HPC)
[9] = dose: 400.0 mg/kg/injection, schedule: Q04DX003 (ip), vehicle: Klucel (hydroxypropylcellulose) (HPC)
[10] = dose: 100.0 mg/kg/injection, schedule: Q01DX001 (ip), vehicle: carboxymethylcellulose (CMC)
[11] = dose: 200.0 mg/kg/injection, schedule: Q01DX001 (ip), vehicle: carboxymethylcellulose (CMC)
[12] = dose: 400.0 mg/kg/injection, schedule: Q01DX001 (ip), vehicle: carboxymethylcellulose (CMC)
[13] = dose: 100.0 mg/kg/injection, schedule: Q01DX009 (ip), vehicle: Klucel (hydroxypropylcellulose) (HPC)
[14] = dose: 200.0 mg/kg/injection, schedule: Q01DX009 (ip), vehicle: Klucel (hydroxypropylcellulose) (HPC)
[15] = dose: 400.0 mg/kg/injection, schedule: Q01DX009 (ip), vehicle: Klucel (hydroxypropylcellulose) (HPC)

Measured: T/C

N#C/C(=C\c1cccnc1)c1ccc(Br)cc1
inactive: dose: 100.0 mg/kg/injection, schedule: Q01DX009 (ip), vehicle: saline sonified 98 % of control | dose: 200.0 mg/kg/injection, schedule: Q01DX009 (ip), vehicle: saline sonified 100 % of control | dose: 400.0 mg/kg/injection, schedule: Q01DX009 (ip), vehicle: saline sonified 93 % of control

CCOC(=O)/C(=C\c1cccc2ccccc12)c1ccncc1
inactive: dose: 100.0 mg/kg/injection, schedule: Q01DX001 (ip), vehicle: saline with Tween-80 89 % of control | [1] 98 % of control | dose: 200.0 mg/kg/injection, schedule: Q01DX001 (ip), vehicle: saline with Tween-80 93 % of control | [2] 100 % of control | dose: 400.0 mg/kg/injection, schedule: Q01DX001 (ip), vehicle: saline with Tween-80 96 % of control

O=Cc1nccn1Cc1ccccc1
inactive: dose: 25.0 mg/kg/injection, schedule: Q01DX009 (ip), vehicle: saline with Tween-80 93 % of control | [3] 98 % of control | [1] 100 % of control

COC(=O)C(CSCSC)NC(=O)/C=C/c1cc(OC)ccc1OC (stereo unspecified)
inactive: [1] 87 % of control | [4] 94 % of control | [2] 93 % of control | [5] 88 % of control | dose: 400.0 mg/kg/injection, schedule: Q01DX009 (ip), vehicle: saline with Tween-80 93 % of control | [6] 94 % of control

CCCOB(OCCC)OCCC
inactive: dose: 50.0 mg/kg/injection, schedule: Q01DX001 (ip), vehicle: saline 95 % of control | dose: 100.0 mg/kg/injection, schedule: Q01DX001 (ip), vehicle: saline 98 % of control | dose: 200.0 mg/kg/injection, schedule: Q01DX001 (ip), vehicle: saline 98 % of control | dose: 400.0 mg/kg/injection, schedule: Q01DX001 (ip), vehicle: saline 106 % of control

Cc1cc(=O)[nH]c(=O)n1Cc1ccccc1
inactive: dose: 100.0 mg/kg/injection, schedule: Q01DX001 (ip), vehicle: Klucel (hydroxypropylcellulose) (HPC) 117 % of control | dose: 200.0 mg/kg/injection, schedule: Q01DX001 (ip), vehicle: Klucel (hydroxypropylcellulose) (HPC) 117 % of control | dose: 400.0 mg/kg/injection, schedule: Q01DX001 (ip), vehicle: Klucel (hydroxypropylcellulose) (HPC) 122 % of control

O=C(Nc1ccccc1)c1ccccc1
inactive: [7] 97 % of control | [8] 94 % of control | [9] 103 % of control

CCOCCOCCOCCCNCCCN1CC1
inactive: dose: 88.0 mg/kg/injection, schedule: Q01DX009 (ip), vehicle: saline 117 % of control | dose: 200.0 mg/kg/injection, schedule: Q01DX009 (ip), vehicle: saline 96 % of control | dose: 300.0 mg/kg/injection, schedule: Q01DX001 (ip), vehicle: saline 116 % of control

c1ccc([As](c2ccccc2)c2ccccc2)cc1
inactive: dose: 50.0 mg/kg/injection, schedule: Q01DX001 (ip), vehicle: other 103 % of control | dose: 100.0 mg/kg/injection, schedule: Q01DX001 (ip), vehicle: other 103 % of control | dose: 200.0 mg/kg/injection, schedule: Q01DX001 (ip), vehicle: other 97 % of control | dose: 400.0 mg/kg/injection, schedule: Q01DX001 (ip), vehicle: other 103 % of control

CC1(C)OC(CF)C2OC(C)(C)OC(CF)C2O1 (stereo unspecified)
inactive: dose: 56.25 mg/kg/injection, schedule: Q01DX009 (ip), vehicle: carboxymethylcellulose (CMC) 95 % of control | [10] 96 % of control | dose: 112.5 mg/kg/injection, schedule: Q01DX009 (ip), vehicle: carboxymethylcellulose (CMC) 102 % of control | [11] 96 % of control | [12] 104 % of control

CC(=O)Nc1c(Cl)cccc1Cl
inactive: [7] 95 % of control | [8] 108 % of control | [9] 110 % of control

CCC[CH2][Sn]1([CH2]CCC)[S]CCOB(OCC[S][Sn]([CH2]CCC)([CH2]CCC)[S]CCOB2OCC[S][Sn]([CH2]CCC)([CH2]CCC)[S]CCO2)OCC[S]1
inactive: dose: 6.25 mg/kg/injection, schedule: Q01DX001 (ip), vehicle: Klucel (hydroxypropylcellulose) (HPC) 100 % of control | dose: 12.5 mg/kg/injection, schedule: Q01DX001 (ip), vehicle: Klucel (hydroxypropylcellulose) (HPC) 89 % of control | dose: 25.0 mg/kg/injection, schedule: Q01DX001 (ip), vehicle: Klucel (hydroxypropylcellulose) (HPC) 112 % of control

COc1cc(/C=N\N=C\c2ccc(OC(=O)c3cc(OC)c(OC)c(OC)c3)c(OC)c2)ccc1OC(=O)c1cc(OC)c(OC)c(OC)c1
inactive: [13] 95 % of control | [14] 95 % of control | [15] 102 % of control

CCCCCC(=O)Oc1ccccc1C(=O)O
inactive: dose: 50.0 mg/kg/injection, schedule: Q01DX001 (ip), vehicle: carboxymethylcellulose (CMC) 100 % of control | [10] 100 % of control | [11] 97 % of control | [12] 92 % of control

Cc1ccc(CNc2ccc([N+](=O)[O-])cc2)cc1
inactive: [3] 92 % of control | [1] 103 % of control | [4] 93 % of control | [2] 97 % of control | [5] 101 % of control | [6] 88 % of control

CCOC(=O)C1=C(O)c2ccccc2C1c1ccccc1 (stereo unspecified)
inactive: [13] 93 % of control | [14] 91 % of control | [15] 93 % of control
